Assay results as given in publication PMC7395068, “The evolution of strategies to minimise the risk of human drug-induced liver injury (DILI) in drug discovery and development” (Archives of Toxicology, 2020).
Like-named read-outs stand apart in the source and are kept apart here.

Legend:
[1] = test system: HepG2 C3A spheroid, BSEP, Glu/Gal in HepG2 cells, bioactivation; conditions: cited from earlier work
[2] = Plasma free fraction (fu) and unbound Cmax (Cmax,u); format: in vitro ADME, human; conditions: unbound plasma Cmax
[3] = test system: OATP1B1; conditions: known substrates; cited from earlier work
[4] = test system: THLE or HepG2 cells, isolated mitochondria, BSEP; conditions: cited from earlier work
[5] = test system: PHH spheroids; conditions: cited from earlier work
[6] = test system: rBsep; conditions: In vitro Assay; ref Dawson 2012; cited from earlier work
[7] = test system: THLE-Null and THLE-3A4 cells; conditions: In vitro Assay; ref Gustafsson 2014; cited from earlier work
[8] = test system: PHH; conditions: cited from earlier work
[9] = test system: HepaRG spheroids; assay: Combined HCI (HCS) and cellular ATP 3D assay in HepaRG spheroids; conditions: for AC50 / minimal effective concentration: Homo sapiens
[10] = test system: primary human hepatocytes, NIH3T3 fibroblasts, BSEP, CYP3A4; conditions: cited from earlier work
[11] = cited from earlier work
[12] = cited from earlier work; remark: listed apart in the source
[13] = test system: hLiMTs; conditions: cited from earlier work
[14] = test system: PHH 3D spheroids; design: method as in Bell et al. 2018; conditions: 14-day exposure, three donors, ref Bell et al. 2018; cited from earlier work
[15] = plasma free fraction; cited from earlier work
[16] = test system: hLiMTs; assay: Combined HCI (HCS) and cellular ATP 3D assay in hLiMTs; conditions: for AC50 / minimal effective concentration: Homo sapiens
[17] = read-out: Human plasma Cmax; total plasma Cmax.tot, median of 9 literature references; cited from earlier work
[18] = test system: HepG2 cells, primary human hepatocytes; conditions: In vitro Assay; ref Garside 2014; cited from earlier work
[19] = ref Chen 2011; cited from earlier work
[20] = Modeled in vitro assays (cytotoxicity, mitochondrial dysfunction, BSEP), ref Aleo et al. 2019
[21] = In vitro Assay, ref Proctor 2017
[22] = Microtissue model structural based (HCI), combined HCS and ATP, MEC < 25 × Cmax.tot cut-off
[23] = In vitro Assay, ref Schadt 2015

Human plasma Cmax,u [2]: 0.149 µM | HepaRG <25x Avg Cmax ATP ([9]; HepaRG, ATP endpoint, cut-off <25x Avg Cmax): +ve | HepaRG <100x Avg Cmaxu ATP ([9]; HepaRG, ATP endpoint, cut-off <100x Avg Cmaxu): -ve | HepaRG <25x Avg Cmax HCS ([9]; HepaRG, HCS endpoints, cut-off <25x Avg Cmax): +ve | HepaRG <100x Avg Cmaxu HCS ([9]; HepaRG, HCS endpoints, cut-off <100x Avg Cmaxu): -ve | HepaRG <25x Avg Cmax All ([9]; HepaRG, all endpoints (ATP and HCS), cut-off <25x Avg Cmax): +ve | HepaRG Cmax max All ([9]; HepaRG, all endpoints, Cmax max used): +ve | HepaRG Cmax min All ([9]; HepaRG, all endpoints, Cmax min used): +ve | HepaRG <10 uM All ([9]; HepaRG, all endpoints, cut-off <10 uM): -ve | HepaRG <100x Avg Cmaxu All ([9]; HepaRG, all endpoints, cut-off <100x Avg Cmaxu): -ve | hLiMTs <25x Avg Cmax ATP ([16]; hLiMTs, ATP endpoint, cut-off <25x Avg Cmax): +ve | hLiMTs <100x Avg Cmaxu ATP ([16]; hLiMTs, ATP endpoint, cut-off <100x Avg Cmaxu): -ve | hLiMTs <25x Avg Cmax HCS ([16]; hLiMTs, HCS endpoints, cut-off <25x Avg Cmax): +ve | hLiMTs <100x Avg Cmaxu HCS ([16]; hLiMTs, HCS endpoints, cut-off <100x Avg Cmaxu): -ve | hLiMTs <25x Avg Cmax All ([16]; hLiMTs, all endpoints (ATP and HCS), cut-off <25x Avg Cmax): +ve | hLiMTs Cmax max All ([16]; hLiMTs, all endpoints, Cmax max used): +ve | hLiMTs Cmax min All ([16]; hLiMTs, all endpoints, Cmax min used): +ve | hLiMTs <10 uM All ([16]; hLiMTs, all endpoints, cut-off <10 uM): -ve | hLiMTs <100x Avg Cmaxu All ([16]; hLiMTs, all endpoints, cut-off <100x Avg Cmaxu): -ve
SMILES: COc1ccccc1Oc1c(NS(=O)(=O)c2ccc(C(C)(C)C)cc2)nc(-c2ncccn2)nc1OCCO [bosentan]
Bayesian Machine Learning DILI prediction, Williams (2019) ([1]; Bayesian modeling, ref Williams et al. 2019): +VE | Bayesian Machine Learning ([1]; In vitro Assay, ref Williams 2019): +VE | substrate for hepatic uptake transporter OATP1B1 [3]: known substrates | Partition Hybrid HRM Score ([4]; In vitro Assay, ref Aleo 2019): +VE | Ro2 Hybrid HRM Score ([4]; In vitro Assay, ref Aleo 2019): +VE | Partition Hybrid HRM Score ≥4, Aleo (2019) [4, 20]: +VE (Partition Hybrid HRM Score ≥4) | Partition Hybrid HRM Score ≥8, Aleo (2019) [4, 20]: +VE (Partition Hybrid HRM Score ≥8) | Rule of Two hybrid HRM Score ≥3, Aleo (2019) [4, 20]: +VE (Rule of Two hybrid HRM Score ≥3) | Rule of Two hybrid HRM Score ≥8, Aleo (2019) [4, 20]: +VE (Rule of Two hybrid HRM Score ≥8) | hLiMTs ATP <20 x Cmax ([5]; In vitro Assay, ref Vorrink 2018): +VE (IC20 < 20 × Cmax.tot cut-off) | DILI in vitro assay prediction, Vorrink (2018) ([5]; PHH spheroids, ATP, 14 days, IC20 < 20 × Cmax.tot, ref Vorrink et al. 2018): +VE (IC20 < 20 × Cmax.tot cut-off) | Inhibition of rBsep cutoff<1& cmax u>.2 [6]: +VE | Inhibition of rBsep cutoff<3 [6]: +VE | THLE-Null [7]: -VE | THLE-Null/3A4 [7]: -VE | PHH/100xCmax, Proctor (2017) ([8]; 2D PHH, ATP, IC50 < 100 × Cmax.tot, ref Proctor et al. 2017): -VE | PHH/100uM, Proctor (2017) ([8]; 2D PHH, ATP, IC50 threshold 100 µM, ref Proctor et al. 2017): -VE | PHH ATP <100uM [8, 21]: -VE | AC50 ([9]; HepaRG, read-out: ATP endpoint AC50): 74.7 µM | minimal effective concentration ([9]; HepaRG, read-out: ATP endpoint MEC): 35.2 µM | AC50 ([9]; HepaRG, read-out: HCS endpoint AC50): 125 µM | minimal effective concentration ([9]; HepaRG, read-out: HCS endpoint MEC): 40 µM | DILI prediction HepaRG spheroids (HCS-MEC) [9, 22]: +VE (MEC < 25 × Cmax.tot cut-off) | DILI in vitro assay prediction, Schadt (2015) ([10]; BSEP & Metabolism based, ref Schadt et al. 2015): +VE | Cellular toxicity (3T3 cells) [10, 23]: -VE | Combined Assay [10, 23]: +VE | GSH adduct HML [10, 23]: +VE | Hepatocyte cellular toxicity [10, 23]: +VE | MitoTox 3T3 [10, 23]: -VE | TDI CYP3A4 [10, 23]: -VE | hBSEP inhibition [10, 23]: +VE | DILI severity category (Chen et al. [2016]) ([11]; LTKB DILIrank category, ref Chen et al. 2016): Most | DILI severity category (Chen 2016) ([11]; human DILI classification, LTKB DILIrank, ref Chen et al. 2016): Most | DILI severity category ([11]; human DILI severity, ref Chen et al.): Most | DILI +VE (5-8), DILI -VE (-4) ([11]; ref Chen 2016): +VE | DILI severity category ([11]; ref Chen 2016): vMost-DILI-Concern | Assigned DILI category ([12]; Chen et al. 2016 or literature alignment, ref Chen et al. 2016): 3 | In vivo DILI ([12]; ref Aleo 2019): +VE | In vivo DILI ([12]; ref Dawson 2012): +VE | In vivo DILI ([12]; ref Garside 2014): +VE | In vivo DILI ([12]; ref Gustafsson 2014): +VE | In vivo DILI ([12]; ref Proctor 2017): +VE | In vivo DILI ([12]; ref Schadt 2015): +VE | In vivo DILI ([12]; ref Vorrink 2018): +VE | In vivo DILI ([12]; ref Williams 2019): +VE | hLiMTs ATP <100uM [13, 21]: +VE (IC50 threshold of 100 µM) | hLiMTs/100xCmax, Proctor (2017) ([13]; hLiMTs, ATP, IC50 < 100 × Cmax.tot, ref Proctor et al. 2017): +VE (IC50 < 100 × Cmax.tot) | hLiMTs/100uM, Proctor (2017) ([13]; hLiMTs, ATP, IC50 threshold 100 µM, ref Proctor et al. 2017): +VE (IC50 threshold of 100 µM) | detection at 10 × Cmax.tot cut-off [14]: only detected by one of three donors | fu [15]: 0.020 | AC50 ([16]; read-out: ATP endpoint AC50): 57.9 µM | minimal effective concentration ([16]; read-out: ATP endpoint MEC): 29.4 µM | AC50 ([16]; read-out: HCS endpoint AC50): 179 µM | minimal effective concentration ([16]; read-out: HCS endpoint MEC): 63 µM | DILI prediction hLiMTs (HCS-MEC) [16, 22]: +VE (MEC < 25 × Cmax.tot cut-off) | Cmax [17]: 7.43 µM | Cluster 1-6 +VE Assay [18]: -VE | DILI Score (FDA) (1-8) [19]: 7
